# Measurements taken from US20260191817A1, “FIBROBLAST MODULATORS IN STROMA-RICH TUMORS” (UNIVERSITEIT GENT, priority 2022, published 2026).
# Tests used:
# 4T1-luc cells = assay: 4T1-based intraductal model for triple-negative breast cancer: metastases; type: in vivo, BALB/c mice; details: oral in Medigel, 100 mg/kg three times per day; 6 w p.i.; compared to DMSO
# Procedure: Intraductal inoculations were performed in the third mammary gland pair of lactating female mice. In order to become lactating, 8-w-old female BALB/c mice were mated with male BALB/c mice of the same age and pups were weaned 12-14 d after delivery. One hour after weaning, lactating females received inhalation anesthesia using a mixture of oxygen and isoflurane (2-3%) and were subsequently inoculated through the mammary teat canal using a 32-gauge blunt needle with 5×10^4 4T1-luc cells suspended in a 100 μl mixture of PBS and Matrigel® (1:10; Corning, Bedford, MA, USA). All necessary materials for inoculation were pre-cooled to avoid Matrigel® coagulation. […]
# Compounds were dissolved in DMSO. […] The amount of Medigel given to the mice was weekly determined and depended on the mean mouse body weight and consumption. […]
# Body weight and body temperature were measured every day during the first week p.i., and once a week during the following 5 weeks (i.e. up to 6 w p.i.) using a digital weighing scale and a rectal temperature probe, respectively. As a measurement of primary tumor growth, primary tumor volumes were weekly monitored using a digital caliper and 4T1-luc-derived bioluminescence in primary tumors was monitored at 1, 3 and 6 w p.i. using the IVIS lumina III system (PerkinElmer, Zaventem, Belgium). […]
# [1] = 4T1-based intraductal model: tolerability; type: in vivo; details: oral in Medigel, 100 mg/kg three times per day; weekly evaluation across 6 w study period
# Procedure: Compounds were dissolved in DMSO. The compound solution was subsequently aspired using a 1 mL syringe and an 18 G (pink) needle, including additional air to help eject all the solution and avoid retention of compound in the dead volume. The solution was injected into a Medigel in five parts at five different sites and a volume of gel was aspired and reinjected into the cup at the last site to rinse the dead volume of the syringe. The medication was shaken vigorously afterwards and visually examined for even dispersion of compound. Mice received freshly prepared cups with medication every 48 h and gels were placed in gel cup holders to avoid contact with bedding material and absorbent shavings in the mouse cage. The amount of Medigel given to the mice was weekly determined and depended on the mean mouse body weight and consumption. The dosing level was kept constant at 100 mg/kg three times per day.
# Body weight and body temperature were measured every day during the first week p.i., and once a week during the following 5 weeks (i.e. up to 6 w p.i.) using a digital weighing scale and a rectal temperature probe, respectively. As a measurement of primary tumor growth, primary tumor volumes were weekly monitored using a digital caliper and 4T1-luc-derived bioluminescence in primary tumors was monitored at 1, 3 and 6 w p.i. using the IVIS lumina III system (PerkinElmer, Zaventem, Belgium). To perform in vivo imaging, mice were injected with 200 μl D-luciferin suspended in PBS (2 mg/100 μl; Gold Biotechnology, St. Louis, MO) and images were acquired 10 min later under inhalation anesthesia. To perform ex vivo imaging, mice were sedated with a mixture of 100 mg/kg ketamine (Ketamidor, Ecuphar nv/sa, Oostkamp, Belgium) and 10 mg/kg xylazine (Xylazini Hydrochloridum, Val d'HonyVerdifarm, Beringen, Belgium) and subsequently sacrificed through cervical dislocation. Images of bioluminescent signals in isolated primary tumors, spleens and metastases-bearing organs (including axillary lymph nodes, lungs and liver) were quickly acquired using the IVIS system. Primary tumors and spleens were also weighed using a digital weighing scale. Analysis of the in vivo and ex vivo bioluminescent signals was performed using the living image software 4.7.2.
# [2] = tested on: human invasive MCF-7/6 mammary carcinoma cells; assay: Chick heart invasion (CHI) assay with MCF-7/6 aggregates; type: cell-based; details: MCF7/6, 192 h, lowest concentration at which an anti-invasive effect (histological grade I or II) was observed, 8 days, read-out: Lowest active concentration
# Procedure: Chick heart invasion assays were performed as described earlier (Bracke et al. 2014). Precultured heart fragments of 9-day-old chicken embryos were confronted with MCF-7/6 aggregates on top of a semi-solid agar at 37° C. overnight, after which the confronting pairs were cultured in suspension for 8 days at 37° C., 10% CO2 in presence or absence of a test compound (in duplo). This procedure can also be performed with aggregates of 4T1-Luc cells, for which the suspension culture of the confronting pairs is performed for 3.5 days. All compounds were evaluated at 1 μM and 100 nM; depending on the outcome higher or lower concentrations were subsequently evaluated. Upon fixation in Bouin-Hollande, the cultures were dehydrated and embedded in paraffin. Sections of the confrontation cultures were stained with hematoxylin-eosin are blinded and scored by a trained person (Bracke et al., 2014).
# In the chick heart invasion assay cancer cells are confronted with a fragment of normal tissue, so as not to neglect the contribution of the host tissue in the micro-ecosystem that governs tumor behavior. As such, precultured heart tissue fragments (PHFs), dissected from 9-day-old chicken embryos, may be confronted with aggregates of human invasive MCF-7/6 mammary carcinoma cells or other cells in the presence of a certain concentration of a test compound. After eight days for MCF-7/6, or another period depending on the cell type, the interaction between the cancer cells and the PHF is evaluated histologically and classified along a 5-grades subjective scale (Bracke et al. 2014). Grades III and IV are typical for invasion, while grades 0, I and II correspond to absence of invasion. Compounds that inhibit invasion of confronting cancer cells i.e. from III/IV to 0/I/II, are determined as anti-invasive. Possible alternative assays generally known in the art are the type I collagen invasion assay, wound healing assay and the matrigel invasion assay.
# The chick heart invasion (CHI) assay is a phenotypic assay that confronts precultured heart tissue fragments (PHFs, ‘normal tissue’), obtained from 9-day-old chicken embryos, with aggregates of human invasive MCF-7/6 mammary carcinoma cells (Bracke et al. 2014). In the control situation, the MCF-7/6 cells encircle, invade and destroy the PHF over an 8-day period. Invasion in this assay is defined as the progressive occupation and destruction of the PHF by the MCF-7/6 cells. Three-dimensional reconstruction of this interaction is obtained by microscopic analysis of all consecutive histological sections of the culture. The read-out is an invasion score according to a 5-grades histological scale.
# The CHI closely reproduces the temporal, spatial and histological invasion patterns in man. The co-culture set-up probes for effects on both tumor cells and host tissue, and thus interrogates potential pharmacological targets in either interaction partner. Its use of histological evaluation allows discerning anti-invasive action from cytotoxicity or other effects.
# We have submitted flavones B1-B4, flavanones B5-B8 and the intermediate 2′-hydroxychalcones A9, All and A12 to the chick heart invasion assay using MCF-7/6 aggregates. All compounds were evaluated at 1 μM and 100 nM; depending on the outcome higher or lower concentrations were subsequently evaluated. […] This table also includes CHI data on chalcones A1, A2 and A5.
Compound,"metastatic burden in lung, liver and axillary lymph node metastases (ex-vivo bioluminescence) (4T1-luc cells)",Body temperature [1],Body weight [1],minimal effective concentration [2] [µM]
"COc1cc2oc(-c3ccc(F)cc3)cc(=O)c2c(OC)c1OC [Compound B1, 2-(4-Fluorophenyl)-5,6,7-trimethoxy-4H-chromen-4-one]",overall reduction,no significant variation,no significant variation,0.01
"COc1cc(C(=O)/C=C/c2ccc(F)cc2)cc(OC)c1OC [Compound A1, 3-(4-Fluorophenyl)-1-(3,4,5-trimethoxyphenyl)prop2-en-1-one]",overall reduction,no significant variation,no significant variation,0.01
